17 compounds from patent US20090270350A1, “Pyridinone Pyrazole Urea and Pyrimidinone Pyrazole Urea Derivatives” (PFIZER INC., priority 2006, published 2009) can be followed below.

Like-named read-outs stand apart in the source and are kept apart here.

The assay concerns the target p38α (Homo sapiens, UniProt Q16539). Description: p38α/MK2 cascade assay. Conditions: read-out: p38a/MK2 Cascade 40 min Pre-Incuabtion (% Inhibition): IC50. In kind it is biochemical. The gist of the method: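 In a cascade format, p38α was preincubated 40 min with inhibitor (1000–0.05 nM) before adding 1 nM nonactive MK2 (54-400), 5 μM MgATP and 0.5 μM FITC-Hsp27 peptide. Reaction ran 60 min in HEPES pH 7.5 with MgCl2, DTT, 2% DMSO, then EDTA-quenched. Peptide phosphorylation was measured by Caliper mobility shift to give IC50.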

Where [1] appears, read: Table 2, same p38α/MK2 cascade assay, 40 minutes preincubation.
Setting [2] is: Table 1, inhibitors preincubated with p38α for 40 minutes, phosphorylation of Hsp27 peptide by MK-2, Caliper LabChip 3000.

p38α, sequence (Q16539 whole entry): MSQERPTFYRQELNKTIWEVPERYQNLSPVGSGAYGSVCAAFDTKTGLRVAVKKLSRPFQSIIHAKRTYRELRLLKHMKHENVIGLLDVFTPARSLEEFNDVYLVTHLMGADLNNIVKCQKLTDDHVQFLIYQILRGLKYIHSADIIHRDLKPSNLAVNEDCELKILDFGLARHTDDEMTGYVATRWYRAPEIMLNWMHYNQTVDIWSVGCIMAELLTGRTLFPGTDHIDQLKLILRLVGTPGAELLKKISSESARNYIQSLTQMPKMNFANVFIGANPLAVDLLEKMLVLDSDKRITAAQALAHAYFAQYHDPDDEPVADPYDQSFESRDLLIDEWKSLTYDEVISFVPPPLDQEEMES

Turning to `CNC(=O)c1ccc(C)c(-n2c(C)cc(OCc3ccc(F)cc3CNC(=O)Nc3cc(C(C)(C)C)nn3-c3ccc(C)cc3)c(Br)c2=O)c1` [Example 279, 3-{3-bromo-4-[(2-{[({[3-tert-butyl-1-(4-methylphenyl)-1H-pyrazol-5-yl]amino}carbonyl)-amino]methyl}-4-fluorobenzyl)oxy]-6-methyl-2-oxopyridin-1(2H)-yl}-N,4-dimethylbenzamide], the IC50 under setting [1] turned out to be 3.67 nM.

Regarding `Cc1ccc(C(=O)NCC(O)CO)cc1-n1c(C)cc(OCc2ccccc2CNC(=O)Nc2cc(C(C)(C)C)nn2-c2ccc(Cl)c(O)c2)c(Cl)c1=O` (centres unmarked) [Example 234, 3-{4-[(2-{[({[3-tert-butyl-1-(4-chloro-3-hydroxyphenyl)-1H-pyrazol-5-yl]amino}carbonyl)amino]methyl}benzyl)oxy]-3-chloro-6-methyl-2-oxopyridin-1(2H)-yl}-N-(2,3-dihydroxy-propyl)-4-methylbenzamide], the IC50 under setting [1] was found to be 1.3 nM.

Take `Cc1ccc(C(=O)NCCO)cc1-n1c(C)cc(OCc2ccccc2CNC(=O)Nc2cc(C(C)(C)C)nn2-c2ccc(Cl)c(O)c2)c(Cl)c1=O` [Example 228, 3-{4-[(2-{[({[3-tert-butyl-1-(4-chloro-3-hydroxyphenyl)-1H-pyrazol-5-yl]amino}carbonyl)amino]methyl}benzyl)oxy]-3-chloro-6-methyl-2-oxopyridin-1(2H)-yl}-N-(2-hydroxyethyl)-4-methylbenzamide]: the IC50 under setting [1] was found to be 2.1 nM.

Consider `COC(=O)c1ccc(C)c(-n2c(C)cc(OCc3ccc(F)cc3CNC(=O)Nc3cc(C(C)(C)C)nn3-c3ccc(C)cc3)c(Br)c2=O)c1` [Example 185, methyl 3-{3-bromo-4-[(2-{[({[3-tert-butyl-1-(4-methylphenyl)-1H-pyrazol-5-yl]amino}carbonyl)amino]methyl}-4-fluorobenzyl)oxy]-6-methyl-2-oxopyridin-1(2H)-yl}-4-methylbenzoate], for which the IC50 under setting [2] stood at 3.61 nM.

For the compound `COCCNC(=O)c1ccc(C)c(-n2c(C)cc(OCc3ccccc3CNC(=O)Nc3cc(C(C)(C)C)nn3-c3ccc(Cl)c(O)c3)c(Cl)c2=O)c1` [Example 230, 3-{4-[(2-{[({[3-tert-butyl-1-(4-chloro-3-hydroxyphenyl)-1H-pyrazol-5-yl]amino}carbonyl)amino]methyl}benzyl)oxy]-3-chloro-6-methyl-2-oxopyridin-1(2H)-yl}-N-(2-methoxyethyl)-4-methylbenzamide], the IC50 under setting [1] was determined as 1.92 nM.

As for `COc1ccc(Cn2c(C)cc(OCc3ccccc3CNC(=O)Nc3cc(C(C)(C)C)nn3-c3cccc(Cl)c3)c(Br)c2=O)cc1` [Example 98], under setting [2], the IC50 came to 4.23 nM.

Take `COc1ccc(Cn2c(C)cc(OCc3ccccc3CNC(=O)Nc3cc(C(C)(C)C)nn3-c3cccc(OCCO)c3)c(Cl)c2=O)cc1` [Example 57, 1-{3-tert-butyl-1-[3-(2-hydroxyethoxy)phenyl]-1H-pyrazol-5-yl}-3-[2-({[3-chloro-1-(4-methoxybenzyl)-6-methyl-2-oxo-1,2-dihydropyridin-4-yl]oxy}methyl)benzyl]urea]: under setting [2], the IC50 is 9.3 nM.

With `Cc1cc(OCc2ccccc2CNC(=O)Nc2cc(C(C)(C)C)nn2-c2ccc(F)cc2F)c(Br)c(=O)n1Cc1ccccc1` [Example 105, 1-(2-{[(1-benzyl-3-bromo-6-methyl-2-oxo-1,2-dihydropyridin-4-yl)oxy]methyl}benzyl)-3-[3-tert-butyl-1-(2,4-difluorophenyl)-1H-pyrazol-5-yl]urea], the IC50 under setting [2] came out at 8.19 nM.

Regarding `CNC(=O)c1ccc(C)c(-n2c(C)cc(OCc3ccccc3CNC(=O)Nc3cc(C(C)(C)C)nn3-c3ccc(O)cc3)c(Cl)c2=O)c1` [Example 214, 3-{4-[(2-{[({[3-tert-butyl-1-(4-hydroxyphenyl)-1H-pyrazol-5-yl]amino}carbonyl)amino]methyl}benzyl)oxy]-3-chloro-6-methyl-2-oxopyridin-1(2H)-yl}-N,4-dimethylbenzamide], the IC50 under setting [1] was determined as 2.1 nM.

Consider `COc1ccc(Cn2c(C)cc(OCc3ccccc3CNC(=O)Nc3cc(C(C)(C)C)nn3-c3ccc(C)cc3)c(Br)c2=O)cc1` [Example 101, 1-[2-({[3-bromo-1-(4-methoxybenzyl)-6-methyl-2-oxo-1,2-dihydropyridin-4-yl]oxy}methyl)benzyl]-3-[3-tert-butyl-1-(4-methylphenyl)-1H-pyrazol-5-yl]urea], for which the IC50 under setting [2] was determined as 8.19 nM.

Turning to `COc1ccc(Cn2c(C)cc(OCc3ccccc3CNC(=O)Nc3cc(C(C)(C)C)nn3-c3cccc(F)c3)c(Br)c2=O)c(OC)c1` [Example 117, 1-[2-({[3-bromo-1-(2,4-dimethoxybenzyl)-6-methyl-2-oxo-1,2-dihydropyridin-4-yl]oxy}methyl)benzyl]-3-[3-tert-butyl-1-(3-fluorophenyl)-1H-pyrazol-5-yl]urea], the IC50 under setting [2] came out at 15.7 nM.

As for `COc1ccccc1Cn1c(C)cc(OCc2ccccc2CNC(=O)Nc2cc(C(C)(C)C)nn2-c2ccc(O)c(Cl)c2)c(Cl)c1=O` [Example 248, 1-[3-tert-butyl-1-(3-chloro-4-hydroxyphenyl)-1H-pyrazol-5-yl]-3-[2-({[3-chloro-1-(2-methoxybenzyl)-6-methyl-2-oxo-1,2-dihydropyridin-4-yl]oxy}methyl)benzyl]urea], the IC50 under setting [1] is 15.1 nM.

For the compound `COc1cccc(Cn2c(C)cc(OCc3ccc(F)cc3CNC(=O)Nc3cc(C(C)(C)C)nn3-c3cccc(OCCO)c3)c(Cl)c2=O)c1` [Example 39, 1-{3-tert-butyl-1-[3-(2-hydroxyethoxy)phenyl]-1-pyrazol-5-yl}-3-[2-({[3-chloro-1-(3-methoxybenzyl)-6-methyl-2-oxo-1,2-dihydropyridin-4-yl]oxy}methyl)-5-fluorobenzyl]urea], under setting [2], the IC50 was found to be 7.3 nM.

Turning to `CNC(=O)c1ccc(C)c(-n2c(C)cc(OCc3ccc(F)cc3CNC(=O)Nc3cc(C(C)(C)C)nn3-c3ccc(C)cc3)c(Cl)c2=O)c1` [Example 206, 3-{4-[(2-{[({[3-tert-butyl-1-(4-methylphenyl)-1H-pyrazol-5-yl]amino}carbonyl)amino]methyl}-4-fluorobenzyl)oxy]-3-chloro-6-methyl-2-oxopyridin-1(2H)-yl}-N,4-dimethylbenzamide], under setting [1], the IC50 came to 3.71 nM.

`COCCNC(=O)c1ccc(C)c(-n2c(C)cc(OCc3ccccc3CNC(=O)Nc3cc(C(C)(C)C)nn3-c3cccc(OCCO)c3)c(Cl)c2=O)c1` [Example 238, 3-[4-{[2-({[({3-tert-butyl-1-[3-(2-hydroxyethoxy)phenyl]-1H-pyrazol-5-yl}amino)carbonyl]amino}methyl)benzyl]oxy}-3-chloro-6-methyl-2-oxopyridin-1(2H)-yl]-N-(2-methoxyethyl)-4-methylbenzamide]: the IC50 under setting [1] stood at 2 nM.

In the case of `Cc1ccc(C(=O)NCC(O)CO)cc1-n1c(C)cc(OCc2ccccc2CNC(=O)Nc2cc(C(C)(C)C)nn2-c2ccc(O)c(Cl)c2)c(Cl)c1=O` (centres unmarked) [Example 227, 3-{4-[(2-{[({[3-tert-butyl-1-(3-chloro-4-hydroxyphenyl)-1H-pyrazol-5-yl]amino}carbonyl)amino]methyl}benzyl)oxy]-3-chloro-6-methyl-2-oxopyridin-1(2H)-yl}-N-(2,3-dihydroxy-propyl)-4-methylbenzamide], under setting [1], the IC50 is 2 nM.

As to `COc1cccc(Cn2c(C)cc(OCc3ccccc3CNC(=O)Nc3cc(C(C)(C)C)nn3-c3cccc(OCCO)c3)cc2=O)c1` [Example 38, 1-{3-tert-butyl-1-[3-(2-hydroxyethoxy)phenyl]-1H-pyrazol-5-yl}-3-[2-({[1-(3-methoxybenzyl)-6-methyl-2-oxo-1,2-dihydropyridin-4-yl]oxy}methyl)benzyl]urea], under setting [2], the IC50 was 31.1 nM.
